Results from ChEMBL document CHEMBL1201862, “PubChem BioAssay data set” (2004).
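Cells were grown in 96-well plates and exposed to each compound for 48 hours at five concentrations; endpoints were interpolated linearly between bracketing concentrations, or set to the highest concentration if not reached. Here, GI50 denotes the concentration required for 50% inhibition of growth.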 Active and inactive are the calls of the source. Cut-off read from the data, not from the text of the source: active = GI50 up to about 1.1 µM and inactive = higher.

Tests used:
Test in all cases: DTP human tumour cell line panel, 48 h
[1] = test system: HOP-92
[2] = test system: SR
[3] = test system: EKVX
[4] = test system: HCT-15
[5] = test system: NCI-H460
[6] = test system: HCT-116
[7] = test system: SK-MEL-2
[8] = test system: A498
[9] = test system: SF-295
[10] = test system: OVCAR-8
[11] = test system: IGROV-1
[12] = test system: UO-31
[13] = test system: BT-549
[14] = test system: 786-0
[15] = test system: MDA-MB-435
[16] = test system: OVCAR-4
[17] = test system: DU-145
[18] = test system: CCRF-CEM
[19] = test system: SK-MEL-28
[20] = test system: OVCAR-5
[21] = test system: K562
[22] = test system: TK-10
[23] = test system: NCI/ADR-RES
[24] = test system: M14
[25] = test system: SF-268
[26] = test system: ACHN
[27] = test system: Hs-578T
[28] = test system: NCI-H226
[29] = test system: SW-620
[30] = test system: HL-60
[31] = test system: SN12C
[32] = test system: SNB-19
[33] = test system: SK-MEL-5
[34] = test system: KM12
[35] = test system: MOLT-4
[36] = test system: MDA-MB-231
[37] = test system: PC-3
[38] = test system: MDA-N
[39] = test system: U-251
[40] = test system: LOX IMVI
[41] = test system: NCI-H23
[42] = test system: OVCAR-3
[43] = test system: UACC-62
[44] = test system: Malme-3M
[45] = test system: CAKI-1
[46] = test system: RXF 393
[47] = test system: UACC-257
[48] = test system: A549
[49] = test system: NCI-H522
[50] = test system: T47D
[51] = test system: HT-29
[52] = test system: HOP-62
[53] = test system: RPMI-8226
[54] = test system: SNB-75
[55] = test system: SF-539
[56] = test system: SK-OV-3
[57] = test system: COLO 205
[58] = test system: HCC 2998
[59] = test system: MCF7

COc1ccc(CCCC(=O)O)c(C)c1 was tested, and the GI50 [1] was 27.4 µM (inactive), the GI50 [2] was 9.48 µM (inactive) and the GI50 [3] was > 100 µM (inactive). For the same compound, the GI50 [4] was > 100 µM, the GI50 [5] was 11.7 µM (inactive) and the GI50 [6] was > 100 µM (inactive). The GI50 [7] was 39 µM (inactive), the GI50 [8] was 14.3 µM (inactive) and the GI50 [9] was 38.8 µM (inactive). For the same compound, the GI50 [10] was 74.6 µM (inactive), the GI50 [11] was 45.1 µM (inactive) and the GI50 [12] was > 100 µM (inactive). The GI50 [13] was 84.9 µM (inactive), the GI50 [14] was 30.1 µM (inactive) and the GI50 [15] was 32.8 µM (inactive). For the same compound, the GI50 [16] was 48.2 µM (inactive), the GI50 [17] was 21.1 µM (inactive) and the GI50 [18] was 17.2 µM (inactive). For the same compound, the GI50 [19] was 91.4 µM (inactive), the GI50 [20] was > 100 µM (inactive) and the GI50 [21] was 39.3 µM (inactive). For the same compound, the GI50 [22] was 81.8 µM (inactive), the GI50 [23] was > 100 µM (inactive) and the GI50 [24] was 92.9 µM (inactive). The GI50 [25] was 27.4 µM (inactive), the GI50 [26] was 35.1 µM (inactive) and the GI50 [27] was 43.5 µM (inactive). The GI50 [28] was 22.7 µM (inactive), the GI50 [29] was 59.2 µM (inactive) and the GI50 [30] was 37.5 µM (inactive). For the same compound, the GI50 [31] was 32 µM (inactive), the GI50 [32] was 40.1 µM (inactive) and the GI50 [33] was 40.3 µM (inactive). For the same compound, the GI50 [34] was 36.4 µM (inactive), the GI50 [35] was 15.7 µM (inactive) and the GI50 [36] was 36.1 µM (inactive). The GI50 [37] was 37.9 µM (inactive), the GI50 [38] was 62.4 µM (inactive) and the GI50 [39] was 20.8 µM (inactive). For the same compound, the GI50 [40] was 30.1 µM (inactive), the GI50 [41] was 53.3 µM (inactive) and the GI50 [42] was 30.3 µM (inactive). For the same compound, the GI50 [43] was 36.8 µM (inactive), the GI50 [44] was 27.2 µM (inactive) and the GI50 [45] was 17.8 µM (inactive). The GI50 [46] was 37.1 µM (inactive), the GI50 [47] was 73.5 µM (inactive) and the GI50 [48] was 58.6 µM (inactive). The GI50 [49] was 36.8 µM (inactive), the GI50 [50] was 50.8 µM (inactive) and the GI50 [51] was > 100 µM (inactive). The GI50 [52] was 26.4 µM (inactive).
N#Cc1c(C#N)c(-c2ccco2)n(-c2ccccc2)c1N was tested, and the GI50 [1] was 49.8 µM (inactive), the GI50 [2] was 98.2 µM (inactive) and the GI50 [3] was 45 µM (inactive). The GI50 [4] was > 100 µM, the GI50 [6] was > 100 µM (inactive) and the GI50 [7] was > 100 µM (inactive). For the same compound, the GI50 [8] was > 100 µM (inactive), the GI50 [9] was > 100 µM (inactive) and the GI50 [10] was 22.6 µM (inactive). The GI50 [11] was > 100 µM (inactive), the GI50 [12] was > 100 µM (inactive) and the GI50 [53] was > 100 µM (inactive). For the same compound, the GI50 [13] was 40.1 µM (inactive), the GI50 [14] was 83.4 µM (inactive) and the GI50 [15] was > 100 µM (inactive). The GI50 [16] was > 100 µM (inactive), the GI50 [17] was > 100 µM (inactive) and the GI50 [18] was > 100 µM (inactive). For the same compound, the GI50 [20] was > 100 µM (inactive), the GI50 [21] was > 100 µM (inactive) and the GI50 [22] was > 100 µM (inactive). For the same compound, the GI50 [54] was 26.5 µM (inactive), the GI50 [23] was 31.8 µM (inactive) and the GI50 [24] was > 100 µM (inactive). For the same compound, the GI50 [25] was 51.9 µM (inactive), the GI50 [26] was > 100 µM (inactive) and the GI50 [55] was 38.5 µM (inactive). The GI50 [28] was 29.5 µM (inactive), the GI50 [29] was > 100 µM (inactive) and the GI50 [30] was > 100 µM (inactive). The GI50 [56] was 94.4 µM (inactive), the GI50 [31] was > 100 µM (inactive) and the GI50 [32] was 39.2 µM (inactive). The GI50 [33] was > 100 µM (inactive), the GI50 [34] was > 100 µM (inactive) and the GI50 [35] was > 100 µM (inactive). For the same compound, the GI50 [36] was 31.7 µM (inactive), the GI50 [37] was > 100 µM (inactive) and the GI50 [38] was > 100 µM (inactive). The GI50 [39] was 35.5 µM (inactive), the GI50 [40] was > 100 µM (inactive) and the GI50 [41] was > 100 µM (inactive). For the same compound, the GI50 [42] was > 100 µM (inactive), the GI50 [43] was > 100 µM (inactive) and the GI50 [44] was > 100 µM (inactive). The GI50 [45] was > 100 µM (inactive), the GI50 [46] was > 100 µM (inactive) and the GI50 [47] was > 100 µM (inactive). The GI50 [48] was 59.2 µM (inactive), the GI50 [49] was > 100 µM (inactive) and the GI50 [57] was > 100 µM (inactive). For the same compound, the GI50 [58] was > 100 µM (inactive), the GI50 [50] was 11.7 µM (inactive) and the GI50 [51] was > 100 µM (inactive). For the same compound, the GI50 [52] was > 100 µM (inactive) and the GI50 [59] was 5.94 µM (inactive).
With CCOC(=O)c1cc2c(=Cc3ccc(N(C)C)cc3)c3ccccc3n2[n+]1C the GI50 [1] was 2.88 µM (inactive), the GI50 [3] was 4.97 µM (inactive) and the GI50 [4] was 10.4 µM. The GI50 [5] was 2.44 µM (inactive), the GI50 [6] was 0.537 µM (active) and the GI50 [7] was 1.48 µM (inactive). For the same compound, the GI50 [8] was 10.4 µM (inactive), the GI50 [9] was 3.72 µM (inactive) and the GI50 [12] was 6.12 µM (inactive). For the same compound, the GI50 [53] was 0.301 µM (active), the GI50 [13] was 0.577 µM (active) and the GI50 [14] was 1.93 µM (inactive). The GI50 [16] was 3.1 µM (inactive), the GI50 [17] was 1.38 µM (inactive) and the GI50 [19] was 1.53 µM (inactive). For the same compound, the GI50 [20] was 5.98 µM (inactive), the GI50 [21] was 0.787 µM (active) and the GI50 [22] was 7.67 µM (inactive). The GI50 [23] was > 100 µM (inactive), the GI50 [24] was 3.15 µM (inactive) and the GI50 [25] was 3.21 µM (inactive). The GI50 [26] was 5.87 µM (inactive), the GI50 [55] was 0.577 µM (active) and the GI50 [28] was 8.24 µM (inactive). For the same compound, the GI50 [29] was 0.637 µM (active), the GI50 [30] was 0.372 µM (active) and the GI50 [56] was 3.94 µM (inactive). The GI50 [31] was < 0.01 µM (active), the GI50 [32] was 2.15 µM (inactive) and the GI50 [33] was 1.32 µM (inactive). The GI50 [35] was 1.9 µM (inactive), the GI50 [36] was 3.86 µM (inactive) and the GI50 [37] was 0.574 µM (active). For the same compound, the GI50 [38] was 1.23 µM (inactive), the GI50 [39] was 0.304 µM (active) and the GI50 [40] was 1.47 µM (inactive). For the same compound, the GI50 [41] was 2.55 µM (inactive), the GI50 [42] was 0.206 µM (active) and the GI50 [43] was 1.33 µM (inactive). The GI50 [45] was 1.64 µM (inactive), the GI50 [46] was 1.63 µM (inactive) and the GI50 [47] was 1.57 µM (inactive). The GI50 [48] was 3.71 µM (inactive), the GI50 [57] was 0.309 µM (active) and the GI50 [58] was 1.69 µM (inactive). For the same compound, the GI50 [50] was 3.12 µM (inactive), the GI50 [51] was < 0.01 µM (active) and the GI50 [52] was < 0.01 µM (active). The GI50 [59] was 2.34 µM (inactive).
